Results: US20260014232A1, “Pharmaceutical Composition of GLP-1 and GIP Receptor Dual Agonist and Use Thereof” (Jiangsu Hengrui Pharmaceuticals Co., Ltd., priority 2021, published 2026)
Starred links: 1 amine or outer side, 2 acyl side, 3 side chain; linkers in the order of their positions; H or OH if unused. Non-standard residues stand in square brackets, D forms with d. Residues, ends and D or L forms follow the SMILES beside them. Groups on a side chain read outwards from the residue. *: point of attachment. C20 diacid = O=C(O)CCCCCCCCCCCCCCCCCCC(=O)*; γGlu = O=C(O)[C@H](CCC(=O)[*:2])N[*:1]; AEEA = NCCOCCOCC(=O)O; Aib = CC(C)(N)C(=O)O

Tests used:
[1] = Food intake of diet-induced-obesity (DIO) mice; format: in vivo, C57BL/6 mice
Description: High-fat food-induced-obesity male C57BL/6 mice (weighing 35-55 g, aged 10-12 weeks, purchased from Shanghai Jiesijie Laboratory Animal Co., Ltd.) were tested. […] According to the experimental design, the body weight of each mouse was measured and recorded on day 0, day 3, day 6, and so on to day 27, the average body weight of each group of mice was calculated, and body weight change curves were plotted by taking the body weight on the first day as the standard. At the end, the fat and other visceral organs of each part of the mice were taken out and weighed, and the viscera/brain ratio for fat in each part of each mouse was calculated. The effect of the drug on the fat was determined by comparing the change in the viscera/brain ratio for fat of different parts of each group of mice.
The food intake of mice in each group was measured daily during the experiment.

[2] = Glucose metabolism level of db/db mice (fasting and random blood glucose, glycated hemoglobin); format: in vivo, C57BL/KsJ-db/db mice; details: for Glycated hemoglobin: end of experiment day 28, mean ± SD
Description: Each administration group had 10 db/db mice. According to the experimental design, tail vein blood was collected by needle pricking on days 0, 7, 14, 21, and 28 and determined for fasting blood glucose levels with a glucometer and glucose dipsticks, and the mice were fasted 6 h prior to the blood collection at each time point. Tail vein blood was collected by needle pricking on days 3, 10, 17, 24, and 27 and randomly determined for blood glucose levels with a glucometer. Finally, at the end of the experiment on day 28, all the animals in the administration groups were subjected to 2-5% isoflurane inhalation anesthesia, and 100 μL of whole blood was collected through the orbit of each mouse using an EDTA-K2 anticoagulation tube and used for the determination of glycated hemoglobin.

[3] = 10 nmol/kg s.c., Day 0, mean ± SD
[4] = 30 nmol/kg s.c., Day 0, mean ± SD
[5] = 100 nmol/kg s.c., Day 0, mean ± SD

Question: Which daily food intake ([1]; 10 nmol/kg, day 19) does the source give for `CC[C@H](C)[C@H](NC(=O)[C@H](CCCCN)NC(=O)[C@H](CCC(=O)O)NC(=O)[C@H](CCCCNC(=O)COCCOCCNC(=O)COCCOCCNC(=O)CC[C@H](NC(=O)CCCCCCCCCCCCCCCCCCC(=O)O)C(=O)O)NC(=O)[C@H](Cc1ccc(O)cc1)NC(=O)[C@@H](NC(=O)[C@H](CO)NC(=O)[C@H](Cc1ccc(O)cc1)NC(=O)[C@H](CC(=O)O)NC(=O)[C@H](CO)NC(=O)[C@@H](NC(=O)[C@H](Cc1ccccc1)NC(=O)[C@@H](NC(=O)CNC(=O)[C@H](CCC(=O)O)NC(=O)C(C)(C)NC(=O)[C@@H](N)Cc1ccc(O)cc1)[C@@H](C)O)[C@@H](C)O)[C@@H](C)CC)C(=O)N[C@@H](C)C(=O)N[C@@H](C)C(=O)N[C@@H](CCC(N)=O)C(=O)N[C@@H](CCC(=O)O)C(=O)N[C@@H](Cc1ccccc1)C(=O)N[C@H](C(=O)N[C@@H](CC(N)=O)C(=O)N[C@@H](Cc1c[nH]c2ccccc12)C(=O)N[C@@H](CC(C)C)C(=O)N[C@@H](CC(C)C)C(=O)N[C@@H](C)C(=O)NCC(=O)NCC(=O)N1CCC[C@H]1C(=O)N[C@@H](CO)C(=O)N[C@@H](CO)C(=O)NCC(=O)N[C@@H](C)C(=O)N1CCC[C@H]1C(=O)N1CCC[C@H]1C(=O)N1CCC[C@H]1C(=O)N[C@@H](CO)C(N)=O)C(C)C` [Compound 18#] (H-Y[Aib]EGTFTSDYSIYK([AEEA-AEEA-γGlu-C20 diacid])EKIAAQEFVNWLLAGGPSSGAPPPS-NH2) here?
Answer: 1.3 g

Question: And the daily food intake ([1]; 10 nmol/kg, day 20)?
Answer: 2 g

Question: What about the daily food intake ([1]; 10 nmol/kg, day 21) of the same compound?
Answer: 3.2 g

Question: And the daily food intake ([1]; 10 nmol/kg, day 22)?
Answer: 1 g

Question: What about the daily food intake ([1]; 10 nmol/kg, day 23) of the same compound?
Answer: 2.3 g

Question: What about the daily food intake ([1]; 10 nmol/kg, day 24) of the same compound?
Answer: 2.5 g

Question: And the daily food intake ([1]; 10 nmol/kg, day 25)?
Answer: 1.6 g

Question: What about the daily food intake ([1]; 10 nmol/kg, day 26) of the same compound?
Answer: 2.2 g

Question: And the daily food intake ([1]; 10 nmol/kg, day 27)?
Answer: 3.6 g

Question: What about the daily food intake ([1]; 10 nmol/kg, day 28) of the same compound?
Answer: 1 g

Question: What about the “cumulative food intake 28 days after the administration” value ([1]; 100 nmol/kg) of the same compound?
Answer: 36.7 g

Question: And the “cumulative food intake within 5 days after the administration” value ([1]; 100 nmol/kg)?
Answer: 1.8 g

Question: What about the daily food intake ([1]; 100 nmol/kg, day 1, listed as 18 #) of the same compound?
Answer: 0.2 g

Question: What about the daily food intake ([1]; 100 nmol/kg, day 1, listed as 18#) of the same compound?
Answer: 0.2 g

Question: What about the daily food intake ([1]; 100 nmol/kg, day 2) of the same compound?
Answer: 0.1 g

Question: What about the daily food intake ([1]; 100 nmol/kg, day 3) of the same compound?
Answer: 0.4 g

Question: And the daily food intake ([1]; 100 nmol/kg, day 4)?
Answer: 0.4 g

Question: And the daily food intake ([1]; 100 nmol/kg, day 5)?
Answer: 0.6 g

Question: What about the daily food intake ([1]; 100 nmol/kg, day 6) of the same compound?
Answer: 0.7 g

Question: What about the daily food intake ([1]; 100 nmol/kg, day 7) of the same compound?
Answer: 0.5 g

Question: And the daily food intake ([1]; 100 nmol/kg, day 8)?
Answer: 0.7 g

Question: And the daily food intake ([1]; 100 nmol/kg, day 9)?
Answer: 0.9 g

Question: And the daily food intake ([1]; 100 nmol/kg, day 10)?
Answer: 0.9 g

Question: What about the daily food intake ([1]; 100 nmol/kg, day 11) of the same compound?
Answer: 1.1 g

Question: And the daily food intake ([1]; 100 nmol/kg, day 12)?
Answer: 2 g

Question: What about the daily food intake ([1]; 100 nmol/kg, day 13) of the same compound?
Answer: 1.3 g

Question: What about the daily food intake ([1]; 100 nmol/kg, day 14) of the same compound?
Answer: 1.7 g

Question: And the daily food intake ([1]; 100 nmol/kg, day 15)?
Answer: 2 g

Question: What about the daily food intake ([1]; 100 nmol/kg, day 16) of the same compound?
Answer: 1 g

Question: And the daily food intake ([1]; 100 nmol/kg, day 17)?
Answer: 1.6 g

Question: And the daily food intake ([1]; 100 nmol/kg, day 18)?
Answer: 2 g

Question: And the daily food intake ([1]; 100 nmol/kg, day 19)?
Answer: 1.4 g

Question: And the daily food intake ([1]; 100 nmol/kg, day 20)?
Answer: 1.8 g

Question: And the daily food intake ([1]; 100 nmol/kg, day 21)?
Answer: 2.4 g

Question: And the daily food intake ([1]; 100 nmol/kg, day 22)?
Answer: 1.4 g

Question: And the daily food intake ([1]; 100 nmol/kg, day 23)?
Answer: 2.1 g

Question: What about the daily food intake ([1]; 100 nmol/kg, day 24) of the same compound?
Answer: 2.3 g

Question: What about the daily food intake ([1]; 100 nmol/kg, day 25) of the same compound?
Answer: 1.5 g

Question: And the daily food intake ([1]; 100 nmol/kg, day 26)?
Answer: 1.6 g

Question: What about the daily food intake ([1]; 100 nmol/kg, day 27) of the same compound?
Answer: 2.8 g

Question: What about the daily food intake ([1]; 100 nmol/kg, day 28) of the same compound?
Answer: 1.2 g

Question: What about the “Concentration of fasting blood glucose” value [2, 3] of the same compound?
Answer: 14.77 ± 1.30 mmol/L

Question: And the “Concentration of random blood glucose” value [2, 3]?
Answer: 20.42 ± 1.56 mmol/L

Question: What about the “Concentration of fasting blood glucose” value ([2]; 10 nmol/kg s.c., Day 7, mean ± SD) of the same compound?
Answer: 6.05 ± 0.42 mmol/L

Question: And the “Concentration of random blood glucose” value ([2]; 10 nmol/kg s.c., Day 10, mean ± SD)?
Answer: 20.66 ± 1.48 mmol/L

Question: And the “Concentration of fasting blood glucose” value ([2]; 10 nmol/kg s.c., Day 14, mean ± SD)?
Answer: 6.30 ± 0.46 mmol/L

Question: And the “Concentration of random blood glucose” value ([2]; 10 nmol/kg s.c., Day 17, mean ± SD)?
Answer: 18.91 ± 1.33 mmol/L

Question: What about the “Concentration of fasting blood glucose” value ([2]; 10 nmol/kg s.c., Day 21, mean ± SD) of the same compound?
Answer: 7.89 ± 0.81 mmol/L

Question: What about the “Concentration of random blood glucose” value ([2]; 10 nmol/kg s.c., Day 24, mean ± SD) of the same compound?
Answer: 21.17 ± 2.07 mmol/L

Question: What about the “Concentration of fasting blood glucose” value ([2]; 10 nmol/kg s.c., Day 28, mean ± SD) of the same compound?
Answer: 9.41 ± 0.97 mmol/L

Question: And the Glycated hemoglobin ([2]; 10 nmol/kg s.c.)?
Answer: 4.71 ± 0.23 %

Question: And the “Concentration of fasting blood glucose” value [2, 4]?
Answer: 14.13 ± 1.32 mmol/L

Question: What about the “Concentration of random blood glucose” value [2, 4] of the same compound?
Answer: 16.73 ± 1.59 mmol/L

Question: What about the “Concentration of fasting blood glucose” value ([2]; 30 nmol/kg s.c., Day 7, mean ± SD) of the same compound?
Answer: 6.21 ± 0.26 mmol/L

Question: What about the “Concentration of random blood glucose” value ([2]; 30 nmol/kg s.c., Day 10, mean ± SD) of the same compound?
Answer: 15.88 ± 1.86 mmol/L

Question: And the “Concentration of fasting blood glucose” value ([2]; 30 nmol/kg s.c., Day 14, mean ± SD)?
Answer: 6.40 ± 0.57 mmol/L

Question: And the “Concentration of random blood glucose” value ([2]; 30 nmol/kg s.c., Day 17, mean ± SD)?
Answer: 17.30 ± 1.17 mmol/L

Question: And the “Concentration of fasting blood glucose” value ([2]; 30 nmol/kg s.c., Day 21, mean ± SD)?
Answer: 7.03 ± 0.52 mmol/L

Question: And the “Concentration of random blood glucose” value ([2]; 30 nmol/kg s.c., Day 24, mean ± SD)?
Answer: 17.43 ± 1.92 mmol/L

Question: What about the “Concentration of fasting blood glucose” value ([2]; 30 nmol/kg s.c., Day 28, mean ± SD) of the same compound?
Answer: 9.68 ± 1.03 mmol/L

Question: And the Glycated hemoglobin ([2]; 30 nmol/kg s.c.)?
Answer: 4.53 ± 0.17 %

Question: What about the “Concentration of fasting blood glucose” value [2, 5] of the same compound?
Answer: 14.67 ± 1.46 mmol/L

Question: And the “Concentration of random blood glucose” value [2, 5]?
Answer: 9.11 ± 1.25 mmol/L

Question: And the “Concentration of fasting blood glucose” value ([2]; 100 nmol/kg s.c., Day 7, mean ± SD)?
Answer: 5.85 ± 0.33 mmol/L

Question: What about the “Concentration of random blood glucose” value ([2]; 100 nmol/kg s.c., Day 10, mean ± SD) of the same compound?
Answer: 12.34 ± 1.12 mmol/L

Question: And the “Concentration of fasting blood glucose” value ([2]; 100 nmol/kg s.c., Day 14, mean ± SD)?
Answer: 6.25 ± 0.32 mmol/L

Question: And the “Concentration of random blood glucose” value ([2]; 100 nmol/kg s.c., Day 17, mean ± SD)?
Answer: 11.89 ± 1.15 mmol/L

Question: What about the “Concentration of fasting blood glucose” value ([2]; 100 nmol/kg s.c., Day 21, mean ± SD) of the same compound?
Answer: 6.13 ± 0.19 mmol/L

Question: What about the “Concentration of random blood glucose” value ([2]; 100 nmol/kg s.c., Day 24, mean ± SD) of the same compound?
Answer: 11.51 ± 0.95 mmol/L

Question: And the “Concentration of fasting blood glucose” value ([2]; 100 nmol/kg s.c., Day 28, mean ± SD)?
Answer: 7.89 ± 0.41 mmol/L

Question: What about the Glycated hemoglobin ([2]; 100 nmol/kg s.c., listed as 18 #) of the same compound?
Answer: 3.78%

Question: And the Glycated hemoglobin ([2]; 100 nmol/kg s.c., listed as #18)?
Answer: 3.78 ± 0.13 %
